These results are taken from patent publication US9771430B2, “Method of treating a metabolic disorder induced by obesity in a subject in need thereof by administering MK2/3 inhibitors” (THE TRUSTEES OF COLUMBIA UNIVERSITY IN THE CITY OF NEW YORK, priority 2011, dated 2017).

One experiment deals with cytosolic free calcium. In words: Calcium mobilization in primary hepatocytes (Fura-2 imaging). Type of experiment: cell-based, mouse. The procedure: Mouse primary hepatocytes were plated on glass coverslips and loaded with 5 μM Fura-2 acetoxymethyl ester (Molecular Probes) in the presence of 0.025% (w/v) pluronic F127 (Sigma-Aldrich) in Media 199 (Mediatech) for 30 minutes. […] The ratio of fluorescence intensity at the two excitation wavelengths was calculated after subtracting background fluorescence. [Ca2+]I (cytosolic free calcium concentration) was calculated using a Fura-2 calcium imaging calibration kit (Invitrogen). Images were collected and analyzed using the MetaFluor software package (Universal Imaging Corp.). Graphs represent average responses from groups of 30-40 individual cells from representative single experiments. Bar graphs represent average responses (fold over average baseline) from 150-200 cells per condition. All experiments were repeated at least three times with similar results.

The subject of the next experiment is CaMKII. It is filed as cell-based, mouse. The method, then: FIG. 1A. CaMKII enzyme activity was assayed in triplicate wells of primary mouse HCs stimulated with 100 nM glucagon (Gluc) or vehicle control (Veh) for the indicated times (*P<0.05 and **P<0.01 vs. Veh; mean±S.E.M.). FIGS. 1B-1J. Extracts of HCs or liver were probed for phospho-CaMKII, total CaMKII, and β-actin by immunoblot assay. FIG. 1B. HCs were incubated with […] glucagon for the indicated times; FIG. 1C. Glucagon was added to HCs that were pre-treated for 1 h with vehicle control (Veh) or 5 μM BAPTA-AM; FIG. 1D. Glucagon was added to HCs that were pre-treated with 0.5 μM xestospongin (XesC) or to HCs from Ip3r1fl/fl mice transduced with adeno-LacZ control or adeno-Cre (bar graph=Ip3r1 mRNA levels); FIG. 1E. Glucagon was added to HCs that were pre-treated for 1 h with vehicle control (Veh) or 10 μM H89. FIG. 1F. […] FIGS. 1G-1J. In vivo experiments. In FIG. 1G, mice were treated for 30 min with 200 μg kg−1 body weight of glucagon i.p., and in FIG. 1H, mice were pre-treated with 10 pmol g−1 xestospongin C or vehicle control i.p. 4 days prior to glucagon treatment. In FIGS. 1I-1J, mice were fed ad libitum or fasted for 12 h, or fasted for 12 h and then re-fed for 4 h.
Total RNA was extracted from hepatocytes using the RNeasy kit (Qiagen). cDNA was synthesized from 2 μg total RNA using oligo (dT) and Superscript II (Invitrogen). Real-time qPCR analysis and western blotting were performed as previously described (Timmins et al., 2009). Nuclear extraction from liver was performed using the Nuclear Extraction Kit from Panomics according to the manufacturer's instructions.
Immunoblot and RT-qPCR assays were performed as previously described (Timmins et al., 2009). Total RNA was extracted from HCs using the RNeasy kit (Qiagen). cDNA was synthesized from 2 μg total RNA using oligo (dT) and Superscript II (Invitrogen). Nuclear extraction from liver was performed using the Nuclear Extraction Kit from Panomics according to the manufacturer's instructions.

Consider “glucagon: hormone used to stimulate hepatocytes and mice”, for which the cellular free calcium entry in the experiment with cytosolic free calcium (exposure of primary hepatocytes to glucagon) was “rapid increase”. Besides, in the experiment with CaMKII (HCs treated with agonist), the phospho-CaMKII entry is “induced”.
With `C1CCC[C@H]2CCCN3CC[C@@H](CCCCCC[C@@H]4CCCN5CC[C@@H](CC1)O[C@@H]45)O[C@@H]23` [Xestospongin C], the “cytosolic calcium mobilization in response to glucagon (and forskolin)” value in the experiment on cytosolic free calcium (co-/pre-treatment with inhibitor) is reported as “disrupted”. Also, the “glucagon-induced CaMKII phosphorylation” value in the experiment on CaMKII (HCs pre-treated with inhibitor, then glucagon) is recorded as “significant decrease”.
